Test results published in patent US20070141568A1, “Method for determining the presence of one or more ligands in a sample” (BioDetection Systems B.V., priority 2002, published 2007).
Read-outs that look alike come from different tables or passages of the source.

Columns and labels:
[1] = biological target: T1, progesterone receptor (PR) (Homo sapiens, UniProt P06401); assay: U2-OS PR cell line (pSG5-hPR, 3×HRE-TATA-Luc reporter); assay type: cell-based
T1 construct: expressed in transfected cells; host or cells: human U2-OS cells, stably transfected with pSG5-hPR
T1 sequence (P06401 1-933): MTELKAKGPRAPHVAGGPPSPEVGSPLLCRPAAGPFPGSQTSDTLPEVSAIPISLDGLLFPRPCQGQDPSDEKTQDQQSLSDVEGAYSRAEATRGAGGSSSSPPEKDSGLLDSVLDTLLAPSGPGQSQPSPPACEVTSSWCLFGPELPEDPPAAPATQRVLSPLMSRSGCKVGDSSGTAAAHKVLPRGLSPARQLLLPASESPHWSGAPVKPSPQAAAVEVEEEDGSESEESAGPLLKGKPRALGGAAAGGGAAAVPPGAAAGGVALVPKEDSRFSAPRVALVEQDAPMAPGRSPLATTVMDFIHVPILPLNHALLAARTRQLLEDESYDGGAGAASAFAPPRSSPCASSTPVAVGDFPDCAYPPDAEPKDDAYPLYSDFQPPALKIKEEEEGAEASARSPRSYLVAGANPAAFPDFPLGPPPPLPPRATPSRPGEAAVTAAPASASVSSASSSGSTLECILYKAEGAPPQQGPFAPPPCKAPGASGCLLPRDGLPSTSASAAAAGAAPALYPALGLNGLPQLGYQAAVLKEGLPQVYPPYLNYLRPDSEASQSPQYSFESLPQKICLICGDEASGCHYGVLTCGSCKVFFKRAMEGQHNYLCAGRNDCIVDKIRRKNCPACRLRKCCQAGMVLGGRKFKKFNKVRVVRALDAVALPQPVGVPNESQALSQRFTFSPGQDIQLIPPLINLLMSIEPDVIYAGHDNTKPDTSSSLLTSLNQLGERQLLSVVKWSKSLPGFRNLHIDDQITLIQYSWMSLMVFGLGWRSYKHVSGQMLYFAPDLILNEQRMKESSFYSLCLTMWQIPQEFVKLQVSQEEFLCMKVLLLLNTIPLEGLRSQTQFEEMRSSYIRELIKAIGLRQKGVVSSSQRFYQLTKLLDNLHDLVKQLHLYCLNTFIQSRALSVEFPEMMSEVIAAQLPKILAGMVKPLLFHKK
Description: Reporter constructs were made using specific synthetic multimerized hormone responsive elements which were cloned upstream of the synthetic TATA box in the pGL3-TATA-Luc vector. Stable transfected cell lines were made, when necessary co-transfected with a specific receptor-containing expression plasmid pSG5.
The reporter construct comprises 3 tandem repeats of the hormone responsive element (HRE) oligonucleotide:
upstream of the minimal adenovirus E1B TATA promotor sequence ([…]) inserted in the multiple cloning site of the luciferase reporter construct pGL3 (as described in Legler et al., supra).
In order to determine the responsiveness of the U2-OS based steroid reporter cell lines, cells were plated in 96-wells plates and treated for 24 hours with hormone in the culture medium containing 5% charcoal-stripped serum.
The PR cell line was generated by stably transfecting the human U2-OS cell line with pSG5-hPR and the 3×HRE-TATA-Luc reporter constructs.

ER-alpha = biological target: T2, ER-alpha (Homo sapiens, UniProt P03372); assay: U2-OS ER-alpha luciferase reporter cell line; assay type: cell-based
T2 construct: expressed in transfected cells
T2 sequence (P03372 1-595): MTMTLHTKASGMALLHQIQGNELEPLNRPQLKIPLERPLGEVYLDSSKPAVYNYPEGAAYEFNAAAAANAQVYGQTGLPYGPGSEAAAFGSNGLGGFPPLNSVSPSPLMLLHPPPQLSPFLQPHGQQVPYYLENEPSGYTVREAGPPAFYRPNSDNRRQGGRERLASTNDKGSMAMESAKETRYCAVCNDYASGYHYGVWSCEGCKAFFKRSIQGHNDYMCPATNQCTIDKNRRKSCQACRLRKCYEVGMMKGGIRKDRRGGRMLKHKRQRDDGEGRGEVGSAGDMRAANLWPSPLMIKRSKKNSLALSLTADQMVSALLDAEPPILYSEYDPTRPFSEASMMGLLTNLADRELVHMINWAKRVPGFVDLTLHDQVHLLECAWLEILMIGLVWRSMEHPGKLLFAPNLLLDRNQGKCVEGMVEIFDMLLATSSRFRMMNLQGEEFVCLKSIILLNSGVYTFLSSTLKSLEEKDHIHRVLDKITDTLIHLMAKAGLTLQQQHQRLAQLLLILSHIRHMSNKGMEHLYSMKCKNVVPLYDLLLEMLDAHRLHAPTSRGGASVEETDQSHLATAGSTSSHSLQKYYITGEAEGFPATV

## C[C@]12CC[C@H](O)CC1=CC[C@@H]1[C@@H]2CC[C@]2(C)C(=O)CC[C@@H]12 [DHEA]
[1]; logEC50, U2-OS reporter cell line, 24 hours with hormone, 5% charcoal-stripped serum
  potency (logEC50) PR: >−5.0

## C[C@@H]1C[C@H]2[C@@H]3CCC4=CC(=O)C=C[C@]4(C)[C@@]3(F)[C@@H](O)C[C@]2(C)[C@@]1(O)C(=O)CO [Dexamethasone]
[1]; logEC50, U2-OS reporter cell line, 24 hours with hormone, 5% charcoal-stripped serum, read-out: potency (logEC50) PR (converted)
  EC50: > 10 µM

## C[C@]12CC[C@H]3[C@@H](CCC4=CC(=O)CC[C@@H]43)[C@@H]1CC[C@@H]2O [Nandrolone]
ER-alpha
  EC50: 0.0398 µM
[1]
  EC50: 0.00501 µM

## C[C@]1(O)CC[C@H]2[C@@H]3CCC4=CC(=O)CCC4=C3C=C[C@@]21C [R1881]
ER-alpha
  EC50: > 10 µM

## C[C@]12CCC(=O)C=C1CC[C@@H]1[C@@H]2CC[C@]2(C)C(=O)CC[C@@H]12 [androstenedione]
ER-alpha
  EC50: > 10 µM

## C[C@]12CCC(=O)C[C@@H]1CC[C@@H]1[C@@H]2CC[C@]2(C)[C@@H](O)CC[C@@H]12 [dihydro-testosterone, 5α-dihydro-testosterone]
[1]
  EC50: 3.98 µM

## C[C@]12CC[C@H]3[C@@H](CCC4=CC(=O)CC[C@@]43C)[C@@H]1CC[C@@H]2O [testosterone]
[1]
  EC50: 7.94 µM
